Source: patent publication US20230416677A1 (XCELL THERAPEUTICS INC., priority 2020, published 2023)

How the values were obtained:
[1] = test system: Human dermal papilla cells (hDPC); assay: CCK-8 proliferation of dermal papilla cells in serum-free medium treated with rotenone; format: cell-based; settings: rotenone 10 to 100 pM, 72 hours, compared to control group (untreated) and PromoCell medium, FIG. 1
Description: Human dermal papilla cells (hDPC) purchased from PromoCell were inoculated in a Follicle Dermal Papilla cell Growth media (Promocell, Heidelberg, Germany) supplemented with 1% Antibiotic and Antimycotic Hyclone sv30079.91 (hereinafter referred to as Promocell medium), and a serum-free medium, and cultured in a 5% carbon dioxide incubator at 37° C. to prepare cells. The prepared human dermal papilla cells (hDPCs) were seeded at a concentration of 2×10^3/well into 96-well plates, in which a serum-free medium treated with different concentrations (0, 1, 10, 100, 1000 pM) of rotenone (Tocris Bioscience, UK) was put, in a Follicle Dermal Papilla cell Growth media as a commercially available medium, and then cultured for 72 hours. Then, the culture medium in each well was removed, then added to 10 ul CCK-8 reagent and 90 ul medium, respectively, and cultured for 2 hours at a temperature of 37° C. The absorbance of the supernatant was measured at 450 nm using an ELISA reader to confirm the extent of cell proliferation.

[2] = test system: Human dermal papilla cells (hDPC); assay: Flow cytometry of dermal papilla cell biological markers; format: cell-based; settings: serum-free medium with 0.1 g/L albumin and 1 to 100 pM rotenone versus control not treated with rotenone; FIG. 4
Description: The cells were detached from each flask by the use of TrypLE Express, and then the cells were centrifuged. The supernatant was discarded to leave only the cells in the lower layer. The cells were fixed for 15 minutes using a 4% formaldehyde solution, and then reacted on ice for 10 minutes using a 0.5% tween-20 permeabilization solution to prepare cells. The prepared cells were well resuspended in PBS supplemented with 1% FBS, and then the cells were stained using an antibody serving as a previously selected biological marker. CD34 and HLA-DR were selected as negative markers, and alkaline phosphatase, versican, and CD105 were selected as positive markers. After fixing the stained cells with 4% formaldehyde solution for 15 minutes, and flow cytometry was performed using CytoFLEX (Beckman Coulter, USA).

[3] = test system: Human dermal papilla cells (hDPC); assay: Passage culture of dermal papilla cells in albumin-added serum-free medium in the presence or absence of rotenone (density, doubling time, accumulated cell number, viability); format: cell-based
Description: hDPCs were prepared in the same manner as in Example 1. […] The hDPCs were inoculated at a concentration of 1.52×10^5/flask. After culturing in a 5% carbon dioxide incubator at 37° C., photographs of the cells were taken before passage to confirm the density of dermal papilla cells according to the rotenone treatment.
On the other hand, each time the density of the cells proliferated to 90% or more, the cells were passaged. During the passage, the cells were detached from each flask by the use of TrypLE Express, and then the cells were centrifuged. The supernatant was discarded to leave only the cells in the lower layer. The cells were well resuspended by adding a condition-based medium, and then the cell numbers were measured using NC250™ (Chemometec, Denmark). Using the measured cell number and culture time, the doubling time and accumulated cell numbers per day were calculated using the following Equation.
A=previous passage, B=current passage
Doubling time=ln(2)×(Δtime between B and A)/ln(count B/count A) [Equation 1]
Accumulated cell number (ACN)=ACN of A×cell count of B/seeding number [Equation 2]
Each time the density of the cells proliferated to 90% or more, the cells were passaged. During the passage, the cells were detached from each flask by the use of TrypLE Express, and then the cells were centrifuged. The supernatant was discarded to leave only the cells in the lower layer. The cells were well resuspended by adding a condition-based medium, and then the cell viability was measured using NC250™(Chemometec, Denmark) at each passage.

cell division = settings: background statement; cited from earlier work

C=C(C)[C@H]1Cc2c(ccc3c2OC2COc4cc(OC)c(OC)cc4C2C3=O)O1 (stereo in doubt) [rotenone, (2R,6aS,12aS)-1,2,6,6a,12 ,12a-hexahydro-2-isopropenyl-8,9-dimethoxychromeno[3,4-b]furo(2,3-h)chromen-6-one]
proliferation of dermal papilla cells (CCK-8, absorbance 450 nm) [1]: proliferation of dermal papilla cells increases
biological positive markers (alkaline phosphatase, versican, CD105) [2]: maintained at higher levels
negative markers (CD34, HLA-DR) [2]: maintained at lower levels
cell density of dermal papilla cells ([3]; 10 pM rotenone versus rotenone-untreated group, serum-free medium with 0.1 g/L albumin, FIG. 3a): higher cell density
doubling time ([3]; rotenone -treated versus rotenone-untreated group, serum-free medium with 0.1 g/L albumin, FIG. 3b): lower doubling time
cell viability ([3]; rotenone-treated versus rotenone-untreated group, 0.1 g/L albumin, each passage, FIG. 3d): higher cell viability
accumulated cell numbers over time ([3]; rotenone-treated versus rotenone-untreated group, 0.1 g/L albumin, FIG. 3c): higher
concentrations at which rotenone is known to inhibit cell division (cell division): 10 to 100 nM
